From the PolyMetriX glass transition set come the findings set out here.

SMILES strings stand for the structures.

As to `*/C(C)=C(/*)c1ccc([Si](C)(C)C)cc1` (repeat unit), the glass transition temperature was -5.00 °C.

Turning to `*/C(CC)=C(/*)c1ccccc1` (repeat unit), the glass transition temperature was determined as 200.00 °C.

For `*/C=C/c1cccc(OC(=O)CCCCCCCCC(=O)Oc2cccc(-c3nnc(*)s3)c2)c1` (repeat unit), the glass transition temperature is 41.00 °C.

In turn, `*CC#C/C(C#CCOC(=O)CCCCCCCCC(=O)O*)=C\c1ccc(C#Cc2ccc(C=C(C#Cc3ccccc3)C#Cc3ccccc3)cc2)cc1` (repeat unit) came in with a glass transition temperature of 60.00 °C.

The molecule `*CC#CCOC(=O)CCCCCCCCCCC(=O)O*` (repeat unit) returned a glass transition temperature of -27.00 °C.

Molecule `*CCCCCC(*)C` (repeat unit) yielded a glass transition temperature of -66.00 °C.

As to `*CCCCCC(*)CCCCCC` (repeat unit), the glass transition temperature was -76.00 °C.

For `*CCCCCCC(Cl)C(*)Cl` (repeat unit), the glass transition temperature was -18.00 °C.

The molecule `*CCCCCCC(c1ccc(O)cc1)C(*)c1ccc(O)cc1C` (repeat unit) displayed a glass transition temperature of 18.00 °C.

`*CCCCCCCC(=O)OCC1COC(*)O1` (repeat unit) had a glass transition temperature of -23.00 °C.

`*CCCCCCCC(c1ccc(O)cc1)C(*)c1ccc(O)cc1C` (repeat unit) gave a glass transition temperature of 4.00 °C.

On to `*CCCCCCCCC(*)Cl` (repeat unit), for which the glass transition temperature was -33.00 °C.

As for `*CCCCCCCCCC(c1ccc(O)cc1)C(*)c1ccc(O)cc1C` (repeat unit), the glass transition temperature was -1.00 °C.

For `*CCCCCCCCCCCC(c1ccc(O)cc1)C(*)c1ccc(O)cc1C` (repeat unit), the glass transition temperature was 4.00 °C.

As to `*CCCCCCCCCCCCCNC(=O)CCCCCCCCCCCC(=O)N*` (repeat unit), the glass transition temperature was found to be 56.50 °C.

The molecule `*CCCCCCCCCCCNC(=O)CCCCCCCCC(=O)N*` (repeat unit) came in with a glass transition temperature of 40.00 °C.

As to `*CCCCCCCCCCCNC(=O)CCCCCCCCCCC(=O)N*` (repeat unit), the glass transition temperature was found to be 39.00 °C.

As to `*CCCCCCCCCCOC(=O)CCCCCCC(=O)O*` (repeat unit), the glass transition temperature is -22.00 °C.

The molecule `*CCCCCCCCNC(=O)CCCCCCCCC(=O)N*` (repeat unit) yielded a glass transition temperature of 54.00 °C.

Take `*CCCCCCCCNC(=O)CCCCCCCCCCC(=O)N*` (repeat unit): the glass transition temperature was found to be 50.00 °C.

`*CCCCCCCCc1nc2cc(NC(=O)CCCCCCCCC(=O)Nc3ccc4oc(*)nc4c3)ccc2o1` (repeat unit) returned a glass transition temperature of 93.00 °C.

As for `*CCCCCCCNC(=O)CCCCCC(=O)N*` (repeat unit), the glass transition temperature was found to be 55.00 °C.

`*CCCCCCNC(=O)CCCCCCCC1C(CCCCCCCC(=O)N*)C=CC(CCCCCC)C1CCCCCCCC` (repeat unit) had a glass transition temperature of -3.00 °C.

With `*CCCCCCOC(=O)NNC(=O)CCCCCCCCC(=O)NNC(=O)O*` (repeat unit), the glass transition temperature stood at 45.00 °C.

`*CCCCCCS(=O)(=O)c1ccc(/N=N/c2ccc(N(C)CCCCCC(=O)O*)cc2)cc1` (repeat unit) yielded a glass transition temperature of 60.50 °C.

For the molecule `*CCCCOC(=O)CCCCCCCC(=O)O*` (repeat unit), the glass transition temperature is -62.50 °C.

Molecule `*CCCOC(=O)CCCCC(=O)O*` (repeat unit) returned a glass transition temperature of -55.00 °C.

Take `*CCCOC(=O)NNC(=O)CCCCCCCCC(=O)NNC(=O)O*` (repeat unit): the glass transition temperature came out at 22.00 °C.

In the case of `*CCN(CCOC(=O)CCCCC(=O)O*)c1ccc(/C=N/N(c2ccccc2)c2ccccc2)cc1` (repeat unit), the glass transition temperature came out at 54.00 °C.

`*CCOC(=O)CCCCCC(=O)O*` (repeat unit) came in with a glass transition temperature of -46.00 °C.

The molecule `*CCOC(=O)CCCCCCC(=O)OCCOC(=O)c1ccc(C(=O)O*)cc1` (repeat unit) registered a glass transition temperature of -1.00 °C.

`*CCOC(=O)CCCCCCCC(=O)O*` (repeat unit) yielded a glass transition temperature of -45.00 °C.

The molecule `*CCOC(=O)NNC(=O)CCCCCCCCC(=O)NNC(=O)O*` (repeat unit) came in with a glass transition temperature of 63.00 °C.

Take `*CCOCCOC(=O)CCCCC(=O)O*` (repeat unit): the glass transition temperature was -51.00 °C.

The molecule `*CCOCCOC(=O)CCCCCCC(=O)O*` (repeat unit) yielded a glass transition temperature of -66.00 °C.

`*CCOCCOC(=O)CCCCCCCCCCC(=O)O*` (repeat unit): the glass transition temperature is -71.00 °C.

Molecule `*CCOCCOCCOC(=O)CCCCCC(=O)O*` (repeat unit) returned a glass transition temperature of -44.50 °C.

Consider `*CCc1ccc(CCNC(=O)CCCCCCCCC(=O)N*)cc1` (repeat unit), for which the glass transition temperature was determined as 105.00 °C.

`*CCc1ccc(CCNC(=O)CCCCCCCCCC(=O)N*)cc1` (repeat unit) came in with a glass transition temperature of 96.00 °C.

Consider `*CCc1ccc(CCNC(=O)CCCCCCCCCCCCC(=O)N*)cc1` (repeat unit), for which the glass transition temperature was 93.00 °C.

For the molecule `*Cc1ccc(CNC(=O)CCCCCCCCCCCCCC(=O)N*)cc1` (repeat unit), the glass transition temperature was found to be 90.00 °C.

`*NC1CCC(CC2CCC(NC(=O)CCCCCCCCCCC(*)=O)CC2)CC1` (repeat unit) yielded a glass transition temperature of 142.00 °C.

With `*NC1CCC(CCC2CCC(NC(=O)CCCCCCCCC(*)=O)CC2)CC1` (repeat unit), the glass transition temperature worked out at 116.00 °C.

The molecule `*Nc1ccc(Cc2ccc(NC(=O)CCCCCCCC(*)=O)cc2)cc1` (repeat unit) displayed a glass transition temperature of 140.00 °C.

Consider `*Nc1ccc(Cc2ccc(NC(=O)c3cc(NC(=O)C(C(C)CC)N4C(=O)c5ccccc5C4=O)cc(C(*)=O)c3)cc2)cc1` (repeat unit), for which the glass transition temperature stood at 195.00 °C.

As to `*Nc1ccc(Cc2ccc(NC(=O)c3cc(NC(=O)CCCCCN4C(=O)c5ccccc5C4=O)cc(C(*)=O)c3)cc2)cc1` (repeat unit), the glass transition temperature stood at 195.00 °C.

`*Nc1cccc(NC(=O)CCCCCCCCC(*)=O)c1` (repeat unit) had a glass transition temperature of 110.00 °C.

Turning to `*O[Si](C)(C)O[Si](C)(C)O[Si](C)(C)O[Si](C)(C)OC(C)CCCCC(*)C` (repeat unit), the glass transition temperature was -98.00 °C.

Regarding `*O[Si](C)(C)O[Si](C)(C)O[Si](C)(C)O[Si](C)(C)O[Si](C)(C)OC(C)CCCCC(*)C` (repeat unit), the glass transition temperature was -104.00 °C.

In turn, `*Oc1c(-c2ccccc2)cc(Cc2cc(-c3ccccc3)c(OC(=O)CCCCC(*)=O)c(-c3ccccc3)c2)cc1-c1ccccc1` (repeat unit) came in with a glass transition temperature of 115.00 °C.

The molecule `*Oc1ccc(/C(=C/c2ccc(-c3ccc(/C=C(\c4ccccc4)c4ccc(OC(=O)CCCCC(*)=O)cc4)cc3)cc2)c2ccccc2)cc1` (repeat unit) yielded a glass transition temperature of 128.00 °C.

Molecule `*Oc1ccc(C(=O)c2cccc(NC(=O)CCCCCCCCC(=O)Nc3ccc(C(=O)c4ccc(*)cc4)cc3)c2)cc1` (repeat unit) registered a glass transition temperature of 148.00 °C.

Consider `*Oc1ccc(C2(c3ccc(OC(=O)CCCCCCC(*)=O)cc3)c3ccccc3-c3ccccc32)cc1` (repeat unit), for which the glass transition temperature came to 158.00 °C.

Turning to `*Oc1ccc(C2(c3ccc(OC(=O)CCCCCCCCC(*)=O)cc3)c3ccccc3Cc3ccccc32)cc1` (repeat unit), the glass transition temperature came out at 134.00 °C.

As to `*Oc1ccc(C2(c3ccc(OC(=O)CCCCCCCCCCC(*)=O)cc3)c3ccccc3-c3ccccc32)cc1` (repeat unit), the glass transition temperature was found to be 117.00 °C.

Consider `*Oc1ccc(C2(c3ccc(Oc4ccc(-c5ccc(NC(=O)c6cc(C(=O)Nc7ccc(-c8ccc(*)c(C(F)(F)F)c8)cc7)cc(C(C)(C)C)c6)cc5)cc4C(F)(F)F)cc3)c3ccccc3-c3ccccc32)cc1` (repeat unit), for which the glass transition temperature amounted to 278.00 °C.

`*Oc1ccc(NC(=O)CCCCCC(=O)Nc2ccc(*)cc2)cc1` (repeat unit) yielded a glass transition temperature of 180.00 °C.

On to `*Oc1ccc(NC(=O)CCCCCCC(=O)Nc2ccc(*)cc2)cc1` (repeat unit), for which the glass transition temperature was determined as 180.00 °C.

On to `*Oc1ccc(NC(=O)CCCCCCCCCC(=O)Nc2ccc(*)cc2)cc1` (repeat unit), for which the glass transition temperature was determined as 150.00 °C.

Consider `*Oc1ccc(OC(=O)CCCCC(*)=O)cc1` (repeat unit), for which the glass transition temperature turned out to be 90.00 °C.

Consider `*Oc1cccc(NC(=O)CCCCCCC(=O)Nc2ccc(*)cc2)c1` (repeat unit), for which the glass transition temperature stood at 140.00 °C.

As to `*Oc1cccc(NC(=O)CCCCCCCC(=O)Nc2ccc(*)cc2)c1` (repeat unit), the glass transition temperature amounted to 120.00 °C.

In turn, `*Oc1cccc(NC(=O)CCCCCCCCCCC(=O)Nc2ccc(*)cc2)c1` (repeat unit) displayed a glass transition temperature of 110.00 °C.

`*c1ccc(NC(=O)CCCCCC(=O)Nc2ccc(S(*)(=O)=O)cc2)cc1` (repeat unit) showed a glass transition temperature of 163.00 °C.

In turn, `*c1ccc(NC(=O)CCCCCCCCC(=O)Nc2ccc(S(*)(=O)=O)cc2)cc1` (repeat unit) came in with a glass transition temperature of 72.34 °C.

`*c1ccc(NC(=O)CCCCCCCCCCC(=O)Nc2ccc(S(*)(=O)=O)cc2)cc1` (repeat unit): the glass transition temperature amounted to 160.00 °C.

Regarding `*c1ccc(NC(=O)c2cc(NC(=O)c3ccc(OC(C)=O)cc3)cc(C(=O)Nc3ccc(-c4nnc(*)o4)cc3)c2)cc1` (repeat unit), the glass transition temperature was 280.00 °C.

In the case of `*c1ccc2c(c1)C(=O)N(c1ccc(Cc3ccc(N4C(=O)c5ccc(C(C)(C)CCCCC(*)(C)C)cc5C4=O)cc3)cc1)C2=O` (repeat unit), the glass transition temperature amounted to 169.90 °C.

`*c1ccc2c(c1)C(=O)N(c1ccc(Oc3ccc(N4C(=O)c5ccc(C(C)(C)CCCCCCCCC(*)(C)C)cc5C4=O)cc3)cc1)C2=O` (repeat unit) gave a glass transition temperature of 123.7 °C.

For `*c1cccc(NC(=O)CCCCCCCC(=O)Nc2cccc(S(*)(=O)=O)c2)c1` (repeat unit), the glass transition temperature turned out to be 125.00 °C.

`*c1cccc(NC(=O)CCCCCCCCC(=O)Nc2cccc(S(*)(=O)=O)c2)c1` (repeat unit) yielded a glass transition temperature of 112.00 °C.
